Laboratory results published in patent publication US5523406A, “2-substituted tertiary carbinol derivatives of 1,5-iminosugars” (G. D. Searle & Co., priority 1994, dated 1996).
In brackets after ≈: the same amount, converted by molar mass. Read-outs that look alike come from different tables or passages of the source.

Legend:
HIV-1, strain HTVL-IIIB = assay: Inhibition of HIV-1 cytopathogenic effect in Leu-3a-positive CEM cells, MTT endpoint (Method B); assay type: cell-based; details: Human immunodeficiency virus 1, IIIB, CCRF-CEM, 216 h, read-out: ID50 (the source's name)
Procedure: (§1) These tests involved plating of susceptible human host cells which are syncytium-sensitive with and without virus in microculture plates, adding various concentrations of the test compound, incubating the plates for 9 days (during which time infected, non-drug treated control cells are largely or totally destroyed by the virus), and then determining the number of remaining viable cells using a colorimetric endpoint.
Various illustrative compounds synthesized above were tested for inhibition of visna virus in vitro in a plaque reduction assay (Method A) or for inhibition of HIV-1 in a test which measured reduction of cytopathogenic effect in virus-infected synctium-sensitive Leu-3a-positive CEM cells grown in tissue culture (Method B) as follows:
(§2) Tissue culture plates were incubated at 37° C. in a humidified, 5% CO2 atmosphere and observed microscopically for toxicity and/or cytopathogenic effect (CPE). At 1 hour prior to infection, each test article was prepared from the frozen stock, and a 20 μl volume of each dilution (prepared as a 10× concentration) was added to the appropriate wells of both infected and uninfected cells.
(§3) On the 9th day post-infection, the cells in each well were resuspended and a 100 μl sample of each cell suspension was removed for use in an MTT assay. A 20 μl volume of a 5 mg/ml solution of 3-(4,5-dimethylthiazol-2-yl)-2,5-diphenyltetrazolium bromide (MTT) was added to each 100 μl cell suspension, and the cells were incubated at 37° C. in 5% CO2 for 4 hours. […] A 100 μl volume of a solution of 10% sodium dodecyl sulfate in 0.01N hydrochloric acid was added to each sample, and the samples were incubated overnight. The absorbance at 590 nm was determined for each sample using a Molecular Devices Vmax microplate reader. This assay detects drug-induced suppression of viral CPE, as well as drug cytotoxicity, by measuring the generation of MTT-formazan by surviving cells.
(§4) Assays were done in 96-well tissue culture plates. CEM cells were treated with polybrene at a concentration of 2 μg/ml, and an 80 μl volume of cells (1×10^4 cells) was dispensed into each well. A 100 μl volume of each test article dilution (prepared as a 2 ×concentration) was added to 5 wells of cells, and the cells were incubated at 37° C. for 1 hour. A frozen culture of HIV-1, strain HTVL-IIIB, was diluted in culture medium to a concentration of 5×10^4 TCID50 per ml, and a 20 μl volume (containing 10^3 TCID50 of virus) was added to 3 of the wells for each test article concentration. […] A 20 μl volume of normal culture medium was added to the remaining wells to allow evaluation of cytotoxicity. Each plate contained 6 wells of untreated, uninfected, cell control samples and 6 wells of untreated, infected, virus control samples.

in vitro = assay type: cell-based; details: human, cem cells
Procedure: as §1, §2, §3, §4

[1] = Table I, Anti HIV Activity, CEM cells, 9 days

| IC50 (HIV-1, strain HTVL-IIIB; Example 38, inhibition of HIV) | IC50 (HIV-1, strain HTVL-IIIB; [1]) | Structure (SMILES) | cytotoxicity at 216 h (in vitro) | CC50 at 216 h (in vitro) |
| --- | --- | --- | --- | --- |
| 513 µg/mL (≈ 1930 µM) | – | C[C@]1(O)CN[C@@H]2CO[C@@H](c3ccccc3)O[C@H]2[C@@H]1O [XIV, 1,5-dideoxy-1,5-imino-2-C-methyl-4,6-O-(R-phenylmethylene)TD-glucitol] | – | – |
| – | 237 µg/mL (≈ 1020 µM) | CCCCN1C[C@](C)(O)[C@@H](O)[C@H](O)[C@H]1CO [XVIA, 1,5-Butylimino-1,5-dideoxy-2-C-methyl-D-glucitol] | 20% | – |
| – | 492 µg/mL (≈ 1670 µM) | CC1(O)CN(CCCc2ccccc2)C(CO)C(O)C1O [XVIB, 1,5-(3-phenylpropylimino)-1,5-dideoxy-2-C-methyl-D-glucitol] | 40% | – |
| – | 34 µg/mL (≈ 155 µM) | CCCCN1C[C@H](O)[C@@H](O)[C@H](O)[C@H]1CO [n-Bu, N-butyl DNJ, reference compound] | – | > 500 µg/mL |
| – | 6 µg/mL (≈ 23 µM) | CCC(CC)CN1C[C@](C)(O)[C@@H](O)[C@H](O)[C@H]1CO [XVIC, 1,5-(2-ethylbutylimino) -1,5-dideoxy-2-C-methyl-D-glucitol] | – | 349 µg/mL (≈ 1340 µM) |
